Entries after “also recorded” stand apart in the source; their conditions may differ.
Columns and labels:
Type in all cases: cell-based
human RTT neurons [1] = assay: Membrane capacitance (Cm) of cultured human RTT neurons; details: for increase of neuronal Cm: RTT neurons transfected with KCC2 shRNA; for membrane capacitance (Cm): cultured human RTT neurons, vs DMSO or MeBIO control
From the text: (§1) Moreover, a reduction in the number or the strength of excitatory glutamatergic synapses in RTT neurons has been observed in postmortem RTT patient brain samples (30), mouse models of RTT (53), and human stem cell-derived RTT neurons (54). Electrophysiology recording was utilized to assess whether KEECs could rescue the deficits in EGABA and excitatory synaptic transmission of RTT neurons. […] We further investigated whether the beneficial effect of KEECs is a direct result of the increases in neuronal KCC2 gene expression. […] Deficits in a number of morphological measurements, including nuclei size and neurite complexity and branching, are hallmarks of RTT neurons (54-56). […] To validate the morphological measurements, electrophysiological measurements of the neuronal membrane capacitance (Cm), an indicator of neuronal cell size (57) that is reduced in RTT neurons, were conducted.
(§2) Functionally mature human neuron cultures were obtained by seeding human WT or isogenic RTT NPCs on a layer of primary mouse astrocyte culture as previously described (57). In the cultured WT human neurons, KCC2 expression reaches mature level between 2-3 months (7). We therefore treated the WT or RTT human neurons 8-12 weeks in culture, with compounds for a duration of two weeks before conducting whole-cell patch-clamp recording. The extracellular bath solution, that perfused the recording chamber, consists of (in mM): 120 NaCl, 30 glucose, 25 HEPES, 5 KCl, 2 CaCl2, 1 MgCl2. The pH was adjusted to 7.3 with NaOH. The high-chloride internal pipette solution consists of (in mM): 147 KCl, 5 Na-phosphocreatine, 2 EGTA, 10 HEPES, 4 MgATP, and 0.5 Na2GTP; the pH 7.3 was adjusted with KOH. To record mini EPSC, the membrane potential was held at −70 mV, and 0.5 μM of TTX and 50 μM Picrotoxin were applied with bath solution to block action potential and GABAergic synaptic transmission.

KCC2 expression [2] = assay: Western blot of KCC2 in cultured WT human neurons; details: cultured WT human neurons (WIBR1); Western blot
human RTT neurons [3] = assay: mEPSC whole-cell patch-clamp recording in cultured human RTT neurons; details: for mEPSC frequency enhancement: RTT neurons with KCC2 shRNA transfection; for frequency of mEPSCs / mEPSC amplitude: cultured human RTT neurons; for mEPSC amplitude: vs DMSO control
From the text: as §1, §2
To evoke GABA response, a pipette filled with 100 μM GABA solution was positioned 5-10 μm away from the neuronal cell body. Air pulses at the pressure of 10 p.s.i. and duration of 100 ms were generated with a Picrospritzer (Parker Instrumentation) to puff GABA solution onto neuronal cell body. Neuronal response to GABA puffs were recorded at different membrane holding potentials from −90 mV to +30 mV, and the EGABA values were calculated with linear regression. Electrophysiological signals were recorded with Multiclamp 700A patch-clamp amplifier and data were collected with Clamp 9 software (Molecular Devices, Palo Alto, CA), sampled at 10 kHz and filtered at 1 KHz. Off-line data analyses of mEPSC synaptic events were performed with MiniAnalysis software (Synaptosoft, Decator, GA). All experiments were performed at room temperature. A sample size of 5-8 neurons was used for EGABA measurements, while a sample size of 14-19 neurons was used for mEPSC measurements. All data were presented as mean±SEM. ANOVA test followed by the Bonferroni correction were used for statistical analysis. The Kolmogorov-Smirnov test was employed to compare the cumulative distribution between two datasets.

KCC2 expression [4] = assay: Western blot of KCC2 in cultured human RTT neurons; details: Western blot; for concentration at which treatment significantly increases KCC2 expression: cultured ESC-derived human RTT neurons; for KCC2 expression: cultured human RTT neurons
In short: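 Cultured neurons lysed in RIPA buffer (pH 7.6) with sonication; immunoblotted on PVDF with KCC2 antibody (1:2000) overnight at 4° C., HRP secondary.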

immature mouse neurons = assay: Resting membrane potential and membrane capacitance of DIV6 immature mouse neurons
KCC2 expression [5] = assay: Western blot of KCC2 in organotypic mouse brain slices; details: organotypic neonatal mouse brain slices, treated 7 days, vs DMSO, MeBIO or medium-only control

Row | Structure (SMILES) | increase of neuronal Cm (human RTT neurons [1]) | membrane capacitance (Cm) (human RTT neurons [1]) | KCC2 expression (KCC2 expression [2]) | mEPSC frequency enhancement (human RTT neurons [3]) | frequency of mEPSCs (human RTT neurons [3]) | mEPSC amplitude (human RTT neurons [3]) | concentration at which treatment significantly increases KCC2 expression (KCC2 expression [4]) [µM] | KCC2 expression (KCC2 expression [4]) | KCC2 expression (KCC2 expression [4]; listed as KIN 001-043) | resting membrane potential (immature mouse neurons) | KCC2 protein level (KCC2 expression [5]) | membrane capacitance (immature mouse neurons; vs DMSO control)
1 | O=C1Nc2cc(Br)ccc2/C1=C1/Nc2ccccc2/C1=N\O [BIO, (2Z,3E)-6′-bromo-3-(hydroxyimino)-[2,3′-biindolinylidene]-2′-one] | abolished the capability | significantly higher Cm, at levels comparable to isogenic WT human neurons | significantly increased KCC2 expression | abolished the effect | significantly increased the frequency of mEPSCs to levels equivalent to WT control | significantly increased mEPSC amplitude | 0.3 | increased KCC2 expression levels significantly | increase KCC2 expression | does not significantly alter the resting membrane potential | enhanced KCC2 expression levels | –
2 | O=C(c1ccc(/C=C/c2n[nH]c3ccccc23)cc1)N1CCNCC1 [KW-2449, (E)-(4-(2-(1H-indazol-3-yl)vinyl)phenyl)(piperazin-1-yl)methanone] | abolished the capability | significantly higher Cm, at levels comparable to isogenic WT human neurons | significant increase in KCC2 expression in a dose-dependent manner | abolished the effect | significantly increased the frequency of mEPSCs to levels equivalent to WT control | significantly increased mEPSC amplitude | 0.1 | increase KCC2 expression; also recorded: significant enhancement of KCC2 expression | – | does not significantly alter the resting membrane potential | enhanced KCC2 expression levels | significantly increase the membrane capacitance
